Measured values: ChEMBL document CHEMBL1138545, “Synthesis and antimicrobial activities of some new triazolothiadiazoles bearing 4-methylthiobenzyl moiety” (2009)
Values after ≈ are worked out from the molar mass of the structure shown.

Columns and labels:
[1] = system: Trichophyton mentagrophytes; assay: Antifungal activity against Trichophyton mentagrophytes after 3 to days by serial plate dilution method; assay type: functional; conditions: for MIC: Trichophyton mentagrophytes
Pseudomonas aeruginosa [2] = assay: Antibacterial activity against Pseudomonas aeruginosa ATTC 27853 after 24 hrs by the disk diffusion method; assay type: functional; conditions: for MIC: Pseudomonas aeruginosa, ATTC 27853, 24 h
Aspergillus fumigatus = assay: Antifungal activity against Aspergillus fumigatus NICM 902 after 3 to days by serial plate dilution method; assay type: functional; conditions: for MIC: Aspergillus fumigatus, NICM 902
Aspergillus flavus = assay: Antifungal activity against Aspergillus flavus NICM 524 after 3 to days by serial plate dilution method; assay type: functional; conditions: for MIC: Aspergillus flavus, NICM 524
Staphylococcus aureus [3] = assay: Antibacterial activity against Staphylococcus aureus ATTC […] after 24 hrs by the disk diffusion method; assay type: functional; conditions: for MIC: Staphylococcus aureus, 24 h
Klebsiella pneumoniae [4] = assay: Antibacterial activity against Klebsiella pneumoniae after 24 hrs by the disk diffusion method; assay type: functional; conditions: for MIC: Klebsiella pneumoniae, 24 h
Candida albicans = assay: Antifungal activity against Candida albicans NICM 300 after 3 to days by serial plate dilution method; assay type: functional; conditions: for MIC: Candida albicans, NICM 300
Escherichia coli [5] = assay: Antibacterial activity against Escherichia coli ATTC 25922 after 24 hrs by the disk diffusion method; assay type: functional; conditions: for MIC: Escherichia coli, ATTC 25922, 24 h
Staphylococcus aureus [6] = assay: microbe, parasite or virus in culture; conditions: ATTC 25922, 24 h
Description: Antibacterial activity against Staphylococcus aureus ATTC 25922 at 10 ug/mL after 24 hrs by the disk diffusion method

Klebsiella pneumoniae [7] = assay: Antibacterial activity against Klebsiella pneumoniae at 10 ug/mL after 24 hrs by the disk diffusion method; assay type: functional
Escherichia coli [8] = assay: microbe, parasite or virus in culture; conditions: ATTC 25922, 24 h
Description: Antibacterial activity against Escherichia coli ATTC 25922 at 10 ug/mL after 24 hrs by the disk diffusion method

Pseudomonas aeruginosa [9] = assay: microbe, parasite or virus in culture; conditions: ATTC 27853, 24 h, read-out: IZ
Description: Antibacterial activity against Pseudomonas aeruginosa ATTC 27853 at 10 ug/mL after 24 hrs by the disk diffusion method

| SMILES | diameter of the inhibition zone (DIZ) [1] [mm] | MIC [1] [µg/mL] | inhibition zone (IZ) (Pseudomonas aeruginosa [2]) [mm] | MIC (Pseudomonas aeruginosa [2]) [µg/mL] | diameter of the inhibition zone (DIZ) (Aspergillus fumigatus) [mm] | MIC (Aspergillus fumigatus) [µg/mL] | diameter of the inhibition zone (DIZ) (Aspergillus flavus) [mm] | MIC (Aspergillus flavus) [µg/mL] | inhibition zone (IZ) (Staphylococcus aureus [3]) [mm] | MIC (Staphylococcus aureus [3]) [µg/mL] | inhibition zone (IZ) (Klebsiella pneumoniae [4]) [mm] | MIC (Klebsiella pneumoniae [4]) [µg/mL] | diameter of the inhibition zone (DIZ) (Candida albicans) [mm] | MIC (Candida albicans) [µg/mL] | inhibition zone (IZ) (Escherichia coli [5]) [mm] | MIC (Escherichia coli [5]) [µg/mL] | further results |
| --- | --- | --- | --- | --- | --- | --- | --- | --- | --- | --- | --- | --- | --- | --- | --- | --- | --- |
| CSc1ccc(Cc2nnc3sc(-c4ccc(Br)cc4)nn23)cc1 | 13 | 25 (≈ 59.9 µM) | 16 | 25 (≈ 59.9 µM) | 14 | 25 (≈ 59.9 µM) | 15 | 12.5 (≈ 30 µM) | 15 | 25 (≈ 59.9 µM) | 20 | 25 (≈ 59.9 µM) | 13 | 25 (≈ 59.9 µM) | 13 | 25 (≈ 59.9 µM) |  |
| CSc1ccc(Cc2nnc3sc(-c4ccc(-c5ccccc5C(F)(F)F)o4)nn23)cc1 | 20 | 6 (≈ 12.7 µM) | 18 | 6 (≈ 12.7 µM) | 20 | 6 (≈ 12.7 µM) | 11 | 25 (≈ 52.9 µM) | 19 | 12.5 (≈ 26.5 µM) | 25 | 6 (≈ 12.7 µM) | 15 | 25 (≈ 52.9 µM) | 18 | 12.5 (≈ 26.5 µM) |  |
| O=C(O)c1cn(C2CC2)c2cc(N3CCNCC3)c(F)cc2c1=O [CIPROFLOXACIN] |  |  |  |  |  |  |  |  |  |  |  |  |  |  |  |  | MIC (Staphylococcus aureus [6]): 12.5 µg/mL (≈ 37.7 µM); zone of inhibition at 10 µg/mL (Staphylococcus aureus [6]; read-out: IZ): 19 mm; MIC (Klebsiella pneumoniae [7]): 6 µg/mL (≈ 18.1 µM); zone of inhibition at 10 µg/mL (Klebsiella pneumoniae [7]; read-out: IZ): 25 mm; MIC (Escherichia coli [8]): 6 µg/mL (≈ 18.1 µM); zone of inhibition at 10 µg/mL (Pseudomonas aeruginosa [9]): 18 mm |
| CSc1ccc(Cc2nnc3sc(-c4ccc(-c5cc(Cl)ccc5Cl)o4)nn23)cc1 | 17 | 12.5 (≈ 26.4 µM) | 18 | 6 (≈ 12.7 µM) | 13 | 25 (≈ 52.8 µM) | 18 | 6 (≈ 12.7 µM) | 16 | 25 (≈ 52.8 µM) | 20 | 12.5 (≈ 26.4 µM) | 20 | 6 (≈ 12.7 µM) | 16 | 12.5 (≈ 26.4 µM) |  |
| CSc1ccc(Cc2nnc3sc(-c4cc(F)c(Cl)cc4Cl)nn23)cc1 | 19 | 6 (≈ 14.1 µM) | 17 | 12.5 (≈ 29.4 µM) | 21 | 6 (≈ 14.1 µM) | 18 | 6 (≈ 14.1 µM) | 19 | 12.5 (≈ 29.4 µM) | 23 | 6 (≈ 14.1 µM) | 20 | 6 (≈ 14.1 µM) | 20 | 6 (≈ 14.1 µM) |  |
